For this assay, the system named is Mycobacterium tuberculosis H37Rv growth inhibition, no glycerol. Put plainly: Mycobacterium tuberculosis H37Rv growth inhibition, no glycerol, confirmatory dose response (AID 449764).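 On all read-outs here: growth read after 7 days of incubation.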 Conditions: for IC90: measured here: IC90 growth inhibition.

Consider `COc1ccccc1-n1cc2c([N+](=O)[O-])cc([N+](=O)[O-])cc2n1`, for which the IC50 is 1.98 µM and the IC90 was 5.89 µM.
In the same order, the values of `COc1ccc2nc(NC(=O)C3CCCN(S(=O)(=O)c4cccs4)C3)sc2c1` (stereo not drawn) are 14.9 µM and 24.2 µM.
As to `Cc1cccc(C)c1Nc1c(-c2ccccn2)nc2ccccn12`, the IC50 is 5.93 µM and the IC90 was 8.59 µM.
For `CN(C)c1ccc(/C=C2\N=C(C(C)(C)C)OC2=O)cc1`, the IC50 was 86 µM and the concentration for an effect of 90% (IC90) is more than 100 µM.
As for `CC[C@H](C)[C@@H]1O[C@@]2(C=CC1C)CC1C[C@@H](CC=C(C)C(O[C@H]3CC(OC)C(O[C@H]4CC(OC)C(O)C(C)O4)C(C)O3)C(C)C=CC=C3CO[C@@H]4C(O)C(C)=C[C@@H](C(=O)O1)[C@]34O)O2` (stereo partly drawn), the IC50 is 16.5 µM and the IC90 is 27.3 µM.
As to `Cc1cc(C)n2nc(/C(C#N)=C/c3ccccn3)c(C#N)c2n1`, the IC50 is 19.4 µM and the IC90 was 35.5 µM.
As to `CCOC(=O)N1CCN(Cc2cc(Cl)c3cccnc3c2O)CC1`, the IC50 is 21.8 µM and the IC90 was found to be 24.7 µM.
Regarding `Oc1ccc(N=Nc2n[nH]c(-c3ccc(Cl)cc3)n2)cc1`, the IC50 was 12.9 µM and the IC90 was 32.4 µM.
In the same order, the values of `Cc1ccc(-c2cc(-c3ccccc3C)[nH]n2)c(O)c1` are 38.4 µM and more than 100 µM.
`Cc1ccc(S(=O)(=O)NCc2ccc(C(=O)NCCCN3CCC(Cc4ccccc4)CC3)cc2)cc1` displayed an IC90 of more than 100 µM.
`O=C(NC(=S)Nc1cccc2cccnc12)c1ccccc1`: the IC50 was 56.9 µM and the IC90 was more than 100 µM.
With `CSc1cccc(CNC(=O)C2CCC(=O)N(Cc3cccc(C(F)(F)F)c3)C2)c1` (stereo not drawn), the IC50 was 36.9 µM and the IC90 was 41.8 µM.
On to `O=C(OCc1ccccc1F)c1cnc(Cl)c(Cl)c1`, for which the IC50 is 22 µM and the concentration for an effect of 90% (IC90) was 55 µM.
On the same counts, the results for `Cc1oc(-c2cccc(Cl)c2)nc1CN1CCC(C(=O)N2CCN(c3ccccc3F)CC2)CC1` are 18.7 µM and 26.4 µM.
On the same counts, the results for `Cc1c(OCc2ccccc2)c(=O)ccn1Cc1ccc(Cl)cc1` are 57.6 µM and 95.9 µM.
In the same order, the values of `CCOC(=O)c1c(NC(=O)C(NCCN(C)C)c2ccccc2)sc2c1CCCC2` (stereo not drawn) are 9.32 µM and 12.1 µM.
Regarding `CCC1CSC(Nc2ccc(C(=O)/C=C/c3cccc(C)c3)cc2)=N1` (stereo not drawn), the 50% inhibitory concentration (IC50) was 20.5 µM and the IC90 is 35.9 µM.
For `C[n+]1c(-c2ccccc2)cc(CCCCc2cc(-c3ccccc3)[n+](C)c(-c3ccccc3)c2)cc1-c1ccccc1`, the IC50 is 24.8 µM and the IC90 was found to be 28.3 µM.
In the same order, the values of `NC(=O)N=Nc1c2[nH]c3ccccc3nc-2c2ccccc12` are 5.96 µM and 8.44 µM.
For the compound `COC(=O)c1ccc(/C=C/c2c(-c3ccsc3)oc3ccc(N4CCOCC4)cc23)cc1`, the half-inhibitory concentration (IC50) was 30.6 µM and the 90% effect concentration (IC90) was found to be 53.6 µM.
For `c1ccc(-c2n[nH]c(-c3ccccn3)n2)cc1`, the IC50 was 20.5 µM and the IC90 was 27.5 µM.
In the same order, the values of `COC(=O)CCn1c(C)cc(C(=O)COc2ccccc2C(N)=O)c1C` are 10.9 µM and 14.8 µM.
Regarding `COc1cccc(NC(=O)CNC(=O)Cn2cnc3sc4c(c3c2=O)CCCC4)c1`, the IC50 is 66.7 µM and the IC90 was more than 100 µM.
On the same counts, the results for `CC(C)(C)c1ccc(Cn2c(=N)n(CC(O)c3ccco3)c3ccccc32)cc1` (stereo not drawn) are 23.3 µM and 25.6 µM.
As to `O=C(COc1ccccc1)NNc1nc2ccccc2s1`, the IC50 is 92.8 µM and the IC90 was more than 100 µM.
For the compound `COc1ccc(N2C(=O)C(Cl)=C(Nc3ccccc3O)C2=O)cc1`, the IC50 was 18.4 µM and the IC90 was found to be 24.8 µM.
Turning to `N#CCCN(C(=O)COC(=O)CCc1c[nH]c2ccccc12)c1ccc(F)cc1`, the IC50 was 34.4 µM and the IC90 turned out to be 68.5 µM.
Consider `O=C(Nc1nc2ccccc2[nH]1)C12CC3CC(CC(C3)C1)C2`, for which the IC50 was 13.5 µM and the IC90 was more than 100 µM.
On the same counts, the results for `Cc1cccc(NC(=O)c2nc[nH]c2C(=O)N[C@H](C)c2ccccc2)c1` are 10.2 µM and more than 100 µM.
Take `O=C(Oc1c(Cl)cc(Cl)c2cccnc12)c1cccs1`: the IC50 is 1.28 µM and the IC90 came out at 1.38 µM.
Consider `CCOC(=O)C(C)Oc1ccc(OCc2ccccc2)cc1` (stereo not drawn), for which the IC50 was 9.95 µM and the IC90 stood at 14.6 µM.
For `CC1CCc2c(C(=O)Nc3nccs3)csc2C1` (stereo not drawn), the IC50 is 41.9 µM and the IC90 came out at 80.3 µM.
Consider `CC(C)(C)C(=O)NC(=S)NNC(=O)c1sc2ccccc2c1Cl`, for which the half-maximal inhibitory concentration (IC50) was 43.9 µM and the IC90 was more than 100 µM.
In the case of `CCOc1ccc(N2CC(=O)Nc3ccccc3NCC2=O)cc1`, the IC50 is 55.7 µM and the concentration for an effect of 90% (IC90) came out at 83.1 µM.
Regarding `CCOc1cc2c(cc1OCC)-n1cccc1C(c1ccc(C(C)C)cc1)NC2` (stereo not drawn), the IC50 is 20.2 µM and the IC90 was 28.7 µM.
With `COc1ccc(N/C=C/C(=O)c2sc(-c3ccccc3)nc2C)cc1`, the IC50 is 79.3 µM and the IC90 is more than 100 µM.
As for `O=C(/C=C/c1cccnc1)c1cccc(O)c1`, the IC50 was 22.4 µM and the IC90 was 24.1 µM.
In the same order, the values of `CC(C)(C)NC(=O)C(c1c[nH]c2ccccc12)N(C(=O)Cn1nnc(-c2ccc(F)cc2)n1)c1cccc(O)c1` (stereo not drawn) are 34.7 µM and 45.6 µM.
In the case of `CC1CCCCC1NC(=O)c1ccc2c(c1)[nH]c(=O)n2C1CCCC1` (stereo not drawn), the half-maximal inhibitory concentration (IC50) was 9.65 µM and the IC90 came out at 14.1 µM.
Turning to `CSCCOC(=O)COc1ccc(/C=N/NC(=O)c2c(Cl)cnn2C)cc1`, the IC50 is 19.6 µM and the IC90 was 37.7 µM.
On the same counts, the results for `CCn1c(=O)c(CCC(=O)N2CCN(c3ccccn3)CC2)c(C)c2c(C)nn(-c3cccc(C)c3)c21` are 21.8 µM and more than 100 µM.
With `CSc1ccc(C(=O)C2CCCN(C(=O)c3ccc4c(c3)no[n+]4[O-])C2)cc1` (stereo not drawn), the IC50 is 1.65 µM and the IC90 came to 2.53 µM.
On the same counts, the results for `Oc1ccccc1/C=N/NC(=S)NC1CC2CC1C1C=CCC21` (stereo not drawn) are 11.9 µM and 18 µM.
On the same counts, the results for `C=C(C)CSc1cc(C)c(C#N)c2nc3ccccc3n12` are 31.5 µM and 52.3 µM.
For the compound `O=C(Nc1ccc(C2=NCCN2)cc1)c1ccc(Cl)c(C(=O)Nc2ccc(C3=NCCN3)cc2)c1`, the IC50 was 22.7 µM and the IC90 was 25.4 µM.
For the compound `C/C(=N/Nc1cc(-c2ccccc2)nc(-c2ccccc2)n1)c1ccc(O)cc1`, the IC50 is 9.73 µM and the IC90 amounted to 12.7 µM.
For the compound `CC(C)OC(=O)CSc1nc2ccccc2s1`, the IC50 is 22.1 µM and the 90% effect concentration (IC90) was determined as 36.7 µM.
`COc1ccc(C2=NN(C(=O)COC(=O)c3ccc(S(C)(=O)=O)c([N+](=O)[O-])c3)C(c3ccco3)C2)cc1` (stereo not drawn): the IC50 was 18.3 µM and the concentration for an effect of 90% (IC90) turned out to be 26.9 µM.
On to `Cc1ccc(/C=C/S(=O)(=O)NCC(=O)OCC(=O)Nc2c(F)cccc2F)cc1`, for which the IC50 was 22.9 µM and the IC90 was determined as 41.3 µM.
For `CCc1ccc2[nH]c(=O)c(CN(CCCN3CCOCC3)C(=O)Nc3cccc(Cl)c3)cc2c1`, the IC50 is 33.7 µM and the IC90 was determined as 40.5 µM.
In the same order, the values of `CCOC(=O)N/N=C(/C)c1ccc([N+](=O)[O-])o1` are 43.1 µM and more than 100 µM.
With `O=C(CN1CCN(c2ccccc2O)CC1)Nc1ccccc1C(=O)NCCc1ccccc1`, the IC50 was 72.7 µM and the IC90 is more than 100 µM.
As for `Cc1ccc(C(=O)n2c(N)nc3ccccc32)cc1`, the half-maximal inhibitory concentration (IC50) is 89.9 µM and the IC90 is more than 100 µM.
As for `O=[N+]([O-])c1cnc(Nc2ccc(Cl)cn2)c([N+](=O)[O-])c1`, the 50% inhibitory concentration (IC50) is 90.3 µM and the 90% effect concentration (IC90) worked out at 99.4 µM.
In the case of `COC(=O)C(C)Oc1ccc(-c2nccc(-c3ccccn3)n2)cc1` (stereo not drawn), the IC50 was 3.91 µM and the IC90 turned out to be 6.95 µM.
On the same counts, the results for `COC(=O)[C@H](CCSC)NC(=O)N1CCN(c2cccc(C(F)(F)F)c2)CC1` are 29 µM and 58.8 µM.
On the same counts, the results for `COc1cc(-c2ccc3oc(-c4ccsc4)cc(=O)c3c2)cc(OC)c1OC` are 38.1 µM and 53.6 µM.
On the same counts, the results for `COc1ccccc1C(=O)NNC(=O)C(=O)NCc1ccccc1` are 22.8 µM and 40.6 µM.
Consider `O=C1N=C(N2CCC(Cc3ccccc3)CC2)S/C1=C/c1cn[nH]c1-c1ccccc1`, for which the IC50 was 78.9 µM and the 90% effect concentration (IC90) was more than 100 µM.
For `Cc1cc(C)c(CSc2ncc(-c3ccc([N+](=O)[O-])cc3)[nH]2)c(C)c1`, the IC50 is 36.9 µM and the IC90 amounted to 53.4 µM.
On to `CSc1cccc(NC(=O)CCS(=O)(=O)c2cccc3nonc23)c1`, for which the IC50 is 5.57 µM and the IC90 came out at 9.26 µM.
As for `CC(=O)Oc1ccc(/C=N\NC(=O)c2cc3c(ccc4ccccc43)o2)cc1`, the IC90 was more than 100 µM.
As for `Cc1nn(Cc2ccccc2)c(C)c1NC(=O)c1cc2nc(-c3ccco3)cc(C(F)(F)F)n2n1`, the IC50 was 45.8 µM and the IC90 came to 49.6 µM.
Consider `Cc1cncn1CCc1nc2c3ccccc3nc(SCC(=O)Nc3cccc(Cl)c3)n2n1`, for which the IC50 was 27.4 µM and the IC90 was determined as 31.9 µM.
In the case of `COc1ccc(-c2cn3cc([N+](=O)[O-])ccc3n2)cc1OC`, the IC50 is 46.9 µM and the IC90 was more than 50 µM.
For `CCCCCCCCCCOC(=O)Cn1c(COc2ccc(Cl)cc2)[n+](C)c2ccccc21`, the IC50 was 15.8 µM and the IC90 turned out to be 17.5 µM.
On the same counts, the results for `O=C(NNC1CC(=O)N(c2ccc(Br)cc2)C1=O)c1ccccn1` (stereo not drawn) are 29.5 µM and more than 100 µM.
With `Cc1nn(-c2ccccc2)c(Cl)c1/C=C/C(=O)c1ccccc1`, the IC50 is 74.9 µM and the IC90 was determined as 97.2 µM.
In the same order, the values of `CS(=O)(=O)c1ccc([C@@H](O)[C@@H](CF)NC(=O)C(Cl)Cl)cc1` are 16.8 µM and 27.8 µM.
On the same counts, the results for `Cc1c(C(=O)Nc2nc3ccccc3[nH]2)oc2c(Cl)cccc12` are 80.4 µM and more than 100 µM.
